One block for each compound: values may come before it.
Tests used:
p35/CDK5 [1] = molecular target: T1, p35/CDK5 (Homo sapiens, UniProt Q00535+Q15078); assay: Peptide kinase assay with p35/CDK5; assay type: biochemical; settings: 100 μM peptide; for Phosphorylation of substrate class peptides, in words: 20 min, Fig. 1b; for Rate of phosphorylation compared with related peptides, in words: 1.0 versus 1.1 and 1.2, 1.4 versus 1.3
T1 construct: purchased Millipore UK Ltd, Herts, UK
Experimental: (§1) Specific activity (pmol/min) was determined for all protein kinases by incubating known amounts of kinase (0.01-1 μg) with the generic substrate myelin basic protein (MBP, 0.3 mg/ml final) in kinase buffer (25 mM MOPS pH 7.5, 0.05 % (v/v) Brij-35, 0.25 mM EDTA, 5 % (v/v) glycerol) plus 10 mM MgCl2, and 100 μM [γ-32P] ATP (approx 0.5 × 10^6 CPM/nmol) as previously described. Peptide kinase assays were performed with 2mUnits of each kinase as above, except MBP was replaced with the peptide at the concentration given in figure legends. One unit of activity of each protein kinase was calculated as 1 nmole of phosphate transferred/min.
(§2) Fig. 1 In vitro analysis of primary sequence determinants for p35/CDK5 and p25/CDK5. a The contribution of C-terminal Arg/Lys residues to recognition and phosphorylation by each CDK5 complex was assessed by incubating the peptides at the indicated concentrations with 2 m units of each CDK5 complex for 20 mins and measuring phosphate transferred to each peptide. b Each CDK5 complex was incubated for 20 mins with 100 μM of the indicated peptides representing the primary sequence of the 4 classes of CDK5 substrates. The phosphorylated residue is underlined. c To assess the contribution of specific residues ±2 positions from the target residue a further 4 peptides (at 100 μM) were incubated with 2mUnits of each CDK5 complex for 30 mins. The residue changed from the parent sequence (peptide 1.0) is in italics in each case. *indicates p < 0.05 compared to peptide 1.0. d The rate of phosphorylation of the indicated peptides by several members of the CMGC family of kinases was compared by incubating each peptide (at 50 μM) with 2 m units (as determined against the generic substrate MBP) of each kinase for 30 mins and phosphate transfer measured. In all figures the data is presented as the average of at least two different experiments performed in duplicate ± the SEM, and is given as total picomoles transferred during the assay (a) or pmoles transferred/min (b-d)

p25/CDK5 [2] = molecular target: T2, p25/CDK5 (Homo sapiens, UniProt Q00535+Q15078); assay: Peptide kinase assay with p25/CDK5; assay type: biochemical; settings: 100 μM peptide; for Phosphorylation of substrate class peptides, in words: 20 min, Fig. 1b; for Rate of phosphorylation compared with related peptides, in words: 1.0 versus 1.1 and 1.2, 1.4 versus 1.3
T2 construct: purchased Millipore UK Ltd, Herts, UK
T2 sequence (Q00535 whole entry): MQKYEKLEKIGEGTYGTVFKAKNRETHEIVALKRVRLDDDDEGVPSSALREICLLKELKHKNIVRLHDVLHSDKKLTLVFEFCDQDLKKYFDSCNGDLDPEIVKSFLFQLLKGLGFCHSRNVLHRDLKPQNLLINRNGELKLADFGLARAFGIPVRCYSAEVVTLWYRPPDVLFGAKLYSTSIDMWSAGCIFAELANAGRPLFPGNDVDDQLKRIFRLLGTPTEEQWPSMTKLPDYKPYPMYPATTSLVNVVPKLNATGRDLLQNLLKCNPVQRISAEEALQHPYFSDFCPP
T2 sequence (Q15078 99-307 partner limits assumed): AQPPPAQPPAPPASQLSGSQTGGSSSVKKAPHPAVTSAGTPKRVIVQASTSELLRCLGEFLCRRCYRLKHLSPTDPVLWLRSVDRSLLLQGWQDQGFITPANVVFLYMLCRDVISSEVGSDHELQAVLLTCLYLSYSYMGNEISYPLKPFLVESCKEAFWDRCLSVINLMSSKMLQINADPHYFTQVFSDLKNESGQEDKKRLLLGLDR
Experimental: as §1, §2

PICTAIRE = assay: Peptide kinase assay with […]; assay type: biochemical; settings: 50 μM peptide, 2 mUnits kinase, 30 min, Fig. 1d
Experimental: as §1
Fig. 1 In vitro analysis of primary sequence determinants for p35/CDK5 and p25/CDK5. a The contribution of C-terminal Arg/Lys residues to recognition and phosphorylation by each CDK5 complex was assessed by incubating the peptides at the indicated concentrations with 2 m units of each CDK5 complex for 20 mins and measuring phosphate transferred to each peptide. b Each CDK5 complex was incubated for 20 mins with 100 μM of the indicated peptides representing the primary sequence of the 4 classes of CDK5 substrates. The phosphorylated residue is underlined. c To assess the contribution of specific residues ±2 positions from the target residue a further 4 peptides (at 100 μM) were incubated with 2mUnits of each CDK5 complex for 30 mins. […]

[3] = test system: CMGC protein kinase family; assay: Peptide phosphorylation by several members of the CMGC kinase family (selectivity); assay type: biochemical; settings: 50 μM peptide, 2 mUnits of each kinase, 30 min, Fig. 1d
Experimental: as §1, §2

p35/CDK5 [4] = molecular target: T1, p35/CDK5; assay: Phosphorylation kinetics of recombinant protein substrates by p35/Cdk5; assay type: biochemical; settings: initial rate, varying substrate concentrations, Mg[γ-32P]ATP, 10 min, 30 °C, Lineweaver-Burk, ND = not determinable, not phosphorylated to a significant level; for Vmax: at least two experiments in duplicate
Experimental: (§3) Recombinant protein substrates were incubated with 2mUnits of each CMGC kinase as for MBP above for the times and at the concentrations given in figure legends. Reactions were terminated by the addition of SDS-PAGE loading buffer and heating to 70 °C for 15 mins. Aliquots were subjected to SDS-PAGE, stained with Coomassie Brilliant Blue (CBR-250), the gels were dried and radiolabeled bands visualized by autoradiography. Quantification of nmoles of phosphate incorporated was obtained by excising the stained protein band from the gel and counting in scintillation fluid.

p25/CDK5 [5] = molecular target: T2, p25/CDK5; assay: Phosphorylation kinetics of recombinant protein substrates by p25/Cdk5; assay type: biochemical; settings: initial rate, varying substrate concentrations, Mg[γ-32P]ATP, 10 min, 30 °C, Lineweaver-Burk, ND = not determinable, not phosphorylated to a significant level; for Vmax: at least two experiments in duplicate
Experimental: as §3

CDK5 = test system: CDK5; design: method as in PMID 19075597; settings: application of carboplatin; cited from earlier work
MCF-7 = MCF-7 breast cancer cell line; cited from earlier work
Excerpt: (§4) Similarly, CDK5 levels decrease in gastric cancer and its nuclear accumulation suppresses gastric tumorigenesis.

MDA-MB321 = MDA-MB321 breast cancer cell line; cited from earlier work
Excerpt: as §4

p25/CDK5 [6] = molecular target: T2, p25/CDK5; assay type: biochemical; settings: inhibitor 10 μM, 30 min pre-incubation, GST-tau 0.5 μM, 2 mUnits kinase, Fig. 2b
Experimental: as §3
(§5) Recombinant protein substrates (0.5 μM final concentration) were incubated with 2mUnits of each CDK5 complex and MgCl2 and [γ-32P] ATP (approx 0.5x10^6 CPM/nmole) for 30 mins. Reactions were terminated by the addition of SDS-PAGE loading buffer and heating to 70 °C. […] Data is representative of at least three different experiments

p35/CDK5 [7] = molecular target: T1, p35/CDK5; assay type: biochemical; settings: inhibitor 10 μM, 30 min pre-incubation, GST-tau 0.5 μM, 2 mUnits kinase, Fig. 2b
Experimental: as §3, §5

[8] = test system: CDK5 substrate phosphorylation in primary cortical neurons; assay: Immunofluorescence of CDK5 substrate phosphorylation in primary cortical neurons; assay type: cell-based, rat; settings: 10 μM inhibitor, 3 h, neurons 6 days in vitro, Fig. 3a
Experimental: Embryonic primary cortical neurons were isolated from Sprague–Dawley rats at day 18 gestation. Briefly, following dissection, cortex was digested in 0.25 % trypsin in Hank’s balanced salt solution at 37 °C for 20 min. Cells were manually dissociated by trituration using a fire-polished Pasteur pipette and plated onto 0.01 % poly-l-lysine-coated coverslips at a density of 2–5 × 10^6 cells per 6 cm well, then incubated at 37 °C with 5 % CO2 in Neurobasal medium (Gibco) containing 2 % (vol/vol) B27 serum replacement (Invitrogen), penicillin (Sigma; 100 units/ml), streptomycin (Sigma; 100 μg/ml), and 1 % (vol/vol) L-glutamine (Sigma). HeLa and tumour cell lines were maintained in DMEM supplemented with 4.5 g/L glucose, 10 % (vol/vol) FCS, 1 % (vol/vol) penicillin (100 units/ml)/streptomycin (100 μg/ml) at 37 °C in 5 % CO2. […]
Fig. 3 Imaging of CDK5 substrate phosphorylaiton in primary cells. […] Phosphospecific antibodies were detected by Cy-3 bound 2ry antibodies (red) and nuclei were counter-stained with the DNA-binding dye DAPI (blue). […]

[9] = test system: CDK5 substrate phosphorylation in primary cortical neurons; assay: Immunohistochemistry of CDK5 substrate phosphorylation in paraffin-embedded primary neurons; assay type: cell-based, rat; settings: 10 μM inhibitor, 3 h, formaldehyde fixed, Fig. 3b
Experimental: Sections of formalin-fixed, paraffin embedded tissue were cut at a thickness of 4 μm, collected onto Polysine-coated microscope slides (VWR International) and dried overnight at 37 °C. Sections were dewaxed in Histoclear, rinsed in alcohol and endogenous peroxidase was quenched with 0.5 % hydrogen peroxide (100 volumes) in methanol at room temperature for 35 min. After washing in water, antigen retrieval was performed by boiling sections in 10 mM citrate buffer, pH 6.0 for 15 min in a microwave. After cooling, sections were rinsed in PBS and blocked with 5 % normal serum in PBS containing 5 % (v/v) avidin (Vector Laboratories, Peterborough, UK) for 30 min at room temperature. Sections were washed in PBS and incubated with primary antibody in 5 % normal serum in PBS containing 5 % (v/v) biotin at 4 °C overnight. After washing in PBS, sections were then incubated with biotinylated secondary antibody (1:250) (Vector Laboratories) for 30 min at room temperature, followed by streptavidin complexed with biotinylated peroxidase (Vectastain ABC kit; Vector Laboratories) at room temperature for 30 min. […] Cell nuclei were counterstained with haematoxylin (Sigma), dehydrated through graded alcohols, cleared in HistoClear and mounted in DPX. Images were taken using a Spot Insight QE digital camera or slides were digitally scanned (x40) using an Aperio ScanScope XT.

T1 sequence (Q00535 whole entry): as the sequence (Q00535 whole entry) above
T1 sequence (Q15078 whole entry partner): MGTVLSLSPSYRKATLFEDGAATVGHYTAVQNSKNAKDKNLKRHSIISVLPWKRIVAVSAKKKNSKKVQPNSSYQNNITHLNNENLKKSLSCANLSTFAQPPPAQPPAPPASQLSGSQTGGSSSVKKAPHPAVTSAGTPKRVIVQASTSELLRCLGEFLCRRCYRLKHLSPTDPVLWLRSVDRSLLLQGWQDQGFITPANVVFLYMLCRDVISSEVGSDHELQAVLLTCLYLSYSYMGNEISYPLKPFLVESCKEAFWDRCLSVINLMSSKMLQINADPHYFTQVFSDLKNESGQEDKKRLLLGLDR

Reduction of rate of phosphorylation compared to peptide 1.0 and 1.1 (p35/CDK5 [1]; 2 mUnits, 30 min, Fig. 1c): > 90% | Reduction of rate of phosphorylation compared to peptide 1.0 and 1.1 (p25/CDK5 [2]; 2 mUnits, 30 min, Fig. 1c): > 90% | Phosphorylation by PICTAIRE compared with CDK5, in words (PICTAIRE): to a greater extent than CDK5
Compound: KKASAPKSPPKPRS [peptide 1.3]

Phosphorylation of substrate class peptides, in words (p35/CDK5 [1]): relatively poor substrate | Phosphorylation of substrate class peptides, in words (p25/CDK5 [2]): relatively poor substrate
Compound: KKASAPVSPPRDRK [Class 2]

Selectivity of peptide substrate among CMGC kinases, in words [3]: CDK5 is the most effective kinase
Compound: KKASAPKSPARPRS [peptide 1.1]

Compound: CRMP4: recombinant collapsin response mediator protein 4, proposed CDK5 substrate
Km (p35/CDK5 [4]): 0.401 µM | Vmax (p35/CDK5 [4]): 0.665 pmol/min | Km (p25/CDK5 [5]): 0.252 µM | Vmax (p25/CDK5 [5]): 0.155 pmol/min

Rate of phosphorylation compared with related peptides, in words (p35/CDK5 [1]; 2 mUnits, 30 min, Fig. 1c): twice the rate | Phosphorylation of substrate class peptides, in words (p35/CDK5 [1]): much better substrates | Rate of phosphorylation compared with related peptides, in words (p25/CDK5 [2]; 2 mUnits, 30 min, Fig. 1c): twice the rate | Phosphorylation of substrate class peptides, in words (p25/CDK5 [2]): much better substrates | Phosphorylation by PICTAIRE relative to a matched amount of MBP kinase activity of CDK5 (PICTAIRE): < 80% | Selectivity of peptide substrate among CMGC kinases, in words [3]: highly selective for CDK5
Compound: KKASAPKSPRKPRS [peptide 1.0]

Compound: CRMP1: recombinant collapsin response mediator protein 1, proposed CDK5 substrate
Km (p35/CDK5 [4]): 1.26 µM | Vmax (p35/CDK5 [4]): 0.735 pmol/min | Km (p25/CDK5 [5]): 1.46 µM | Vmax (p25/CDK5 [5]): 0.191 pmol/min

Compound: N.N.O=C([O-])C1(C(=O)[O-])CCC1.[Pt+2] [carboplatin]
Effect on CDK5 activity (CDK5): induces CDK5 activation

Phosphorylation of substrate class peptides, in words (p35/CDK5 [1]): not phosphorylated | Phosphorylation of substrate class peptides, in words (p25/CDK5 [2]): not phosphorylated
Compound: KKENNVLSPLPSQA [Class 4]

Compound: CC[C@H](CO)Nc1nc(NCc2ccccc2)c2ncn(C(C)C)c2n1 [roscovitine]
Effect on proliferation (MCF-7): enhances the proliferation | Effect on proliferation (MDA-MB321): enhances the proliferation

Phosphorylation of substrate class peptides, in words (p35/CDK5 [1]): not phosphorylated | Phosphorylation of substrate class peptides, in words (p25/CDK5 [2]): not phosphorylated
Compound: KKPKSRRSPPSIPT [Class 3]

Selectivity of peptide substrate among CMGC kinases, in words [3]: CDK5 is the most effective kinase
Compound: KKASAPVSPRKPRS [peptide 1.2]

Compound: CC(C)[C@H](CO)Nc1nc(Nc2cccc(Cl)c2)c2ncn(C(C)C)c2n1 [purvalanol A]
Effect of CDK inhibitor on tau phosphorylation in vitro (p25/CDK5 [6]): completely blocked | Effect of CDK inhibitor on tau phosphorylation in vitro (p35/CDK5 [7]): completely blocked | CRMP2 phosphorylation at Ser522 (immunofluorescence) [8]: reduces | CRMP4 phosphorylation at Ser522 (immunofluorescence) [8]: does not alter | Intensity of staining and number of cells stained for phospho-Ser522 of CRMP2 (immunohistochemistry) [9]: reduced | Tau phosphorylation at Ser235 (immunohistochemistry) [9]: not significantly affected | Tau phosphorylation at Thr205 (immunohistochemistry) [9]: not significantly affected

Rate of phosphorylation compared with related peptides, in words (p35/CDK5 [1]; 2 mUnits, 30 min, Fig. 1c): did not restore phosphorylation | Rate of phosphorylation compared with related peptides, in words (p25/CDK5 [2]; 2 mUnits, 30 min, Fig. 1c): did not restore phosphorylation
Compound: KKASAAKSPPKPRS [peptide 1.4]

Reference: PMC4640224, “Phosphorylation of a splice variant of collapsin response mediator protein 2 in the nucleus of tumour cells links cyclin dependent kinase-5 to oncogenesis” (BMC Cancer, 2015)
